Data from ChEMBL document CHEMBL3856285, “Recent progress in the identification of adenosine monophosphate-activated protein kinase (AMPK) activators” (Bioorg Med Chem Lett, 2016).
pEC50: −log10 of the molar value.

Key:
[1] = target: AMPK alpha2/beta2/gamma3 (Homo sapiens) (UniProt P54646+O43741+Q9UGI9); test: Activation of human recombinant AMPK alpha2/beta2/gamma3 expressed in African green monkey COS7 cells assessed as increase in biotinylated […] (1 to 120 residues) peptide phosphorylation at Ser-79 residue measured after 60 mins by Alphascreen assay relative to control; format: cell-based; conditions: COS-7
AMPK alpha2/beta2/gamma3 (Homo sapiens), sequence (O43741 whole entry, looked up, the tested form may be a part): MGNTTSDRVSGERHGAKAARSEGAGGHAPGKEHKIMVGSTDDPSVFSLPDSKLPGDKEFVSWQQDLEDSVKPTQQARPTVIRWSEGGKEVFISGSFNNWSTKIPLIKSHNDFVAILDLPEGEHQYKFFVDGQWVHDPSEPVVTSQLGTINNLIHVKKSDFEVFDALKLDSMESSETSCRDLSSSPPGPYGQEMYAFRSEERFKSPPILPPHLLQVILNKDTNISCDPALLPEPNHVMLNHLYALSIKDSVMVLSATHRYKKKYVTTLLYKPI
AMPK alpha2/beta2/gamma3 (Homo sapiens), sequence (P54646 whole entry, looked up, the tested form may be a part): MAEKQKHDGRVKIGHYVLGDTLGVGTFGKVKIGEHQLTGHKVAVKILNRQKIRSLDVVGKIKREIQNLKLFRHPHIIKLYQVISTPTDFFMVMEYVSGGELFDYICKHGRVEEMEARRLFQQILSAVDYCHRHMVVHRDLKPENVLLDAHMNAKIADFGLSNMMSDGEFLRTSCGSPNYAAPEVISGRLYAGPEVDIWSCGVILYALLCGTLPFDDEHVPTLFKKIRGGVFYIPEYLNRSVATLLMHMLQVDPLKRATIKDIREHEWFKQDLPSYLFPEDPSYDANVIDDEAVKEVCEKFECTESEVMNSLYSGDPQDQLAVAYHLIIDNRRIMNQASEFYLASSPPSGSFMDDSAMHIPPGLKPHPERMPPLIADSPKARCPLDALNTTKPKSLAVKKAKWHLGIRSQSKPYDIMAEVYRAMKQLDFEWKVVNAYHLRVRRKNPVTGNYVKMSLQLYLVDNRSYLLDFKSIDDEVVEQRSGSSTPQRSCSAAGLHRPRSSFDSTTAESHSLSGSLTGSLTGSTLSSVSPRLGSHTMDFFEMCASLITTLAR
AMPK alpha2/beta2/gamma3 (Homo sapiens), sequence (Q9UGI9 whole entry, looked up, the tested form may be a part): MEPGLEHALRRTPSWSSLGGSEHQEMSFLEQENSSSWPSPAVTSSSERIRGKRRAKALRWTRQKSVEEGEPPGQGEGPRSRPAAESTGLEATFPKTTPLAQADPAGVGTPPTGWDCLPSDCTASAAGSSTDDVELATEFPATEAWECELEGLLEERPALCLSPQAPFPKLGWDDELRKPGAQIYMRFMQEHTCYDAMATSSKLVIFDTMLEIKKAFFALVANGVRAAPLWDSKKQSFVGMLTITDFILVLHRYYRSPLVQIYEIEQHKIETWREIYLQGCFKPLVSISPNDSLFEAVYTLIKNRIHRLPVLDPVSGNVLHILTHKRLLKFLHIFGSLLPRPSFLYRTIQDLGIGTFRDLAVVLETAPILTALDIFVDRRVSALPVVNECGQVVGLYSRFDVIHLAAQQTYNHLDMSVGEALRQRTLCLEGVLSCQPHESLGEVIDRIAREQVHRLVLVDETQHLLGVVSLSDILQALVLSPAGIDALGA

AMPK alpha2/beta2/gamma3 = AMPK alpha2/beta2/gamma3 (Homo sapiens, UniProt O43741+P54646+Q9UGI9); test: Activation of human recombinant AMPK alpha2/beta2/gamma3 expressed in African green monkey COS7 cells assessed as increase in biotinylated […] (1 to 120 residues) peptide phosphorylation at Ser-79 residue measured after 60 mins by Alphascreen assay; format: cell-based, COS-7
AMPK alpha1/beta2/gamma1 [2] = target: T1, AMPK alpha1/beta2/gamma1 (Homo sapiens, UniProt O43741+P54619+Q13131); test: Activation of human recombinant AMPK alpha1/beta2/gamma1 expressed in African green monkey COS7 cells assessed as increase in biotinylated […] (1 to 120 residues) peptide phosphorylation at Ser-79 residue measured after 60 mins by Alphascreen assay; format: cell-based, COS-7
Target sequence in this assay (O43741 whole entry, the tested form may be a part): as the sequence (O43741 whole entry, looked up, the tested form may be a part) above
Target sequence in this assay (P54619 whole entry, the tested form may be a part): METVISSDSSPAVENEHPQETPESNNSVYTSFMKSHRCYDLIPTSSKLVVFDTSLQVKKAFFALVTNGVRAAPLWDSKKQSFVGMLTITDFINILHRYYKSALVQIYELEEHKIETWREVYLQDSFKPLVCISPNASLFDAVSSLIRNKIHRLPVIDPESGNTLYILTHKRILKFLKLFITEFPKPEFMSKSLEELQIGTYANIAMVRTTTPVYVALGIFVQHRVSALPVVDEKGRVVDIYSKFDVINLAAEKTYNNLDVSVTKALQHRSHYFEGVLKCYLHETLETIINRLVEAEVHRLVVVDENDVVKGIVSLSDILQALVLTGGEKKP
Target sequence in this assay (Q13131 whole entry, the tested form may be a part): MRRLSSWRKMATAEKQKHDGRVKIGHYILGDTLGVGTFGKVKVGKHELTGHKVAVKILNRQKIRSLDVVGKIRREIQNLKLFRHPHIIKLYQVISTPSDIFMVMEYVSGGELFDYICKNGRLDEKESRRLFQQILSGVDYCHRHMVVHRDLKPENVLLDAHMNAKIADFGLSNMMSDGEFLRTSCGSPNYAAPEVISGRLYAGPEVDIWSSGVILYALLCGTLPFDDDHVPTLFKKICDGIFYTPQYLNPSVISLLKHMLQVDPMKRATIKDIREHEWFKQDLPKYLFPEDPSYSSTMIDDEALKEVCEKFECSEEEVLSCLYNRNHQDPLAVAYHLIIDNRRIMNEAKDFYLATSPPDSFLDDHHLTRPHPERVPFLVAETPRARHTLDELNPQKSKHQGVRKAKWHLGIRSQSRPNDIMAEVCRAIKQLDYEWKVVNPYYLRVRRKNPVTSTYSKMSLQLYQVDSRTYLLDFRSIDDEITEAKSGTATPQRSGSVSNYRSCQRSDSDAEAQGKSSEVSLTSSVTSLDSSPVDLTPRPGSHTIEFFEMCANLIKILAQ

[3] = target: AMPK alpha2/beta1/gamma1 (Homo sapiens) (UniProt P54646+P54619+Q9Y478); test: Activation of human recombinant AMPK alpha2/beta1/gamma1 expressed in African green monkey COS7 cells assessed as increase in biotinylated […] (1 to 120 residues) peptide phosphorylation at Ser-79 residue measured after 60 mins by Alphascreen assay relative to control; format: cell-based; conditions: COS-7
AMPK alpha2/beta1/gamma1 = AMPK alpha2/beta1/gamma1 (Homo sapiens, UniProt P54619+P54646+Q9Y478); test: Activation of human recombinant AMPK alpha2/beta1/gamma1 expressed in African green monkey COS7 cells assessed as increase in biotinylated […] (1 to 120 residues) peptide phosphorylation at Ser-79 residue measured after 60 mins by Alphascreen assay; format: cell-based, COS-7
[4] = target: AMP-activated protein kinase (AMPK) alpha-1/beta-1/gamma-1 (Homo sapiens) (UniProt P54619+Q9Y478+Q13131); test: Activation of human recombinant AMPK alpha1/beta1/gamma1 expressed in African green monkey COS7 cells assessed as increase in biotinylated […] (1 to 120 residues) peptide phosphorylation at Ser-79 residue measured after 60 mins by Alphascreen assay relative to control; format: cell-based; conditions: COS-7
[5] = target: T2, AMP-activated protein kinase (AMPK) alpha-1/beta-1/gamma-1 (Homo sapiens, UniProt P54619+Q13131+Q9Y478); test: Activation of human recombinant AMPK alpha1/beta1/gamma1 expressed in African green monkey COS7 cells assessed as increase in biotinylated […] (1 to 120 residues) peptide phosphorylation at Ser-79 residue measured after 60 mins by Alphascreen assay; format: cell-based, COS-7
T2 sequence (P54619 whole entry, the tested form may be a part): as the sequence (P54619 whole entry, the tested form may be a part) above
T2 sequence (Q9Y478 whole entry, the tested form may be a part): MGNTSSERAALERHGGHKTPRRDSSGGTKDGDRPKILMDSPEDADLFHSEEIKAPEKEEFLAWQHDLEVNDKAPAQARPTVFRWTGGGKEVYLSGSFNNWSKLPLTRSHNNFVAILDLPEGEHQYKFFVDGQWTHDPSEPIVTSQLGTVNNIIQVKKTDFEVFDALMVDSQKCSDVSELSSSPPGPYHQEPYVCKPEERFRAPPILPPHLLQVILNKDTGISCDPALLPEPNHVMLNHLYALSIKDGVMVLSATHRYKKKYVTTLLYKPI
T2 sequence (Q13131 whole entry, the tested form may be a part): as the sequence (Q13131 whole entry, the tested form may be a part) above

[6] = target: AMPK alpha2/beta2/gamma1 (Homo sapiens) (UniProt P54646+O43741+P54619); test: Activation of human recombinant AMPK alpha2/beta2/gamma1 expressed in African green monkey COS7 cells assessed as increase in biotinylated […] (1 to 120 residues) peptide phosphorylation at Ser-79 residue measured after 60 mins by Alphascreen assay relative to control; format: cell-based; conditions: COS-7
AMPK alpha2/beta2/gamma1 (Homo sapiens), sequence (O43741 whole entry, looked up, the tested form may be a part): as the sequence (O43741 whole entry, looked up, the tested form may be a part) above
AMPK alpha2/beta2/gamma1 (Homo sapiens), sequence (P54619 whole entry, looked up, the tested form may be a part): as the sequence (P54619 whole entry, the tested form may be a part) above
AMPK alpha2/beta2/gamma1 (Homo sapiens), sequence (P54646 whole entry, looked up, the tested form may be a part): as the sequence (P54646 whole entry, looked up, the tested form may be a part) above

AMPK alpha2/beta2/gamma1 = AMPK alpha2/beta2/gamma1 (Homo sapiens, UniProt O43741+P54619+P54646); test: Activation of human recombinant AMPK alpha2/beta2/gamma1 expressed in African green monkey COS7 cells assessed as increase in biotinylated […] (1 to 120 residues) peptide phosphorylation at Ser-79 residue measured after 60 mins by Alphascreen assay; format: cell-based, COS-7
AMPK alpha1/beta2/gamma1 [7] = target: T1, AMPK alpha1/beta2/gamma1; test: Activation of human recombinant AMPK alpha1/beta2/gamma1 expressed in African green monkey COS7 cells assessed as increase in biotinylated […] (1 to 120 residues) peptide phosphorylation at Ser-79 residue measured after 60 mins by Alphascreen assay relative to control; format: cell-based; conditions: COS-7
[8] = target: T2, AMP-activated protein kinase (AMPK) alpha-1/beta-1/gamma-1; test: Activation of full length human recombinant N-terminal GST-tagged AMPK alpha1/beta1/gamma1 expressed in baculovirus infected High Five cells using NH2-HMRSAMSGLHLVKRR CONH2 substrate after 60 mins by ADP-Glo kinase assay; set-up: species or system BTI-TN-5B1-4

SMILES	fold change (FC) [1]	pEC50 (AMPK alpha2/beta2/gamma3)	pEC50 (AMPK alpha1/beta2/gamma1 [2])	fold change (FC) [3]	pEC50 (AMPK alpha2/beta1/gamma1)	fold change (FC) [4]	pEC50 [5]	fold change (FC) [6]	pEC50 (AMPK alpha2/beta2/gamma1)	fold change (FC) (AMPK alpha1/beta2/gamma1 [7])	pEC50 [8]
Oc1cccc(O)c1-c1ccc(-c2cc3nc(O[C@@H]4CO[C@H]5[C@@H]4OC[C@H]5O)[nH]c3cc2Cl)cc1	16	8.40	8.40	13	7.57	27	7.96	13	8.70	10	–
CS(=O)(=O)Nc1ccc(-c2ccc(-c3nc4nc(O[C@@H]5CO[C@H]6[C@@H]5OC[C@H]6O)[nH]c4cc3Cl)cc2)c(F)c1	–	–	–	–	–	–	–	–	–	–	8.52
